Reference: US9066965B1, “Purified limonin glucoside for prevention and treatment of chronic diseases” (The United States of America, as represented by the …, priority 2012, dated 2015)

Assays:
[1] = Rules Based Medicine human multi-analyte panel (MAP 1.6), plasma; assay type: in vivo; design: Epidermal growth factor: unit not given here
Procedure: Plasma samples prepared from blood collected in EDTA-containing tubes were stored at −80° C. until tested. The samples were thawed at room temperature, vortexed, spun at 13,000×g for 5 minutes for clarification and 100 uL aliquots were removed for MAP analysis into a master microtiter plate. Using automated pipetting, an aliquot of each sample was introduced into one of the capture microsphere multiplexes of the Human MAP 1.6. This MAP comprised of 89 antigens that included markers for oxidative stress, inflammation, immune status, T2DM, CVD, blood clotting, cancer, liver and kidney functions. All plasma samples were tested in duplicate. The mixture of sample and capture microspheres were thoroughly mixed and incubated at room temperature for 1 hour. Multiplexed cocktails of biotinylated, reporter antibodies for each multiplex were then added robotically and after thorough mixing, were incubated for an additional hour at room temperature. Multiplexes were developed using an excess of streptavidin-phycoerythrin solution which was thoroughly mixed into each multiplex and incubated for 1 hour at room temperature. The volume of each multiplexed reaction was reduced by vacuum filtration and the volume increased by dilution into matrix buffer for analysis. Analysis was performed in a Luminex 100 instrument and the resulting data stream was interpreted using proprietary data analysis software developed at Rules-Based Medicine. For each multiplex, both calibrators and controls were included on each microtiter plate. 8-point calibrators were run in the first and last column of each plate and 3-level controls were included in duplicate. Testing results were determined first for the high, medium and low controls for each multiplex to ensure proper assay performance. Unknown values for each of the analytes localized in a specific multiplex were determined using 4 and 5 parameter, weighted and non-weighted curve fitting algorithms included in the data analysis package. The intra-sample coefficient of variance (CV) for all antigens with concentrations above the lowest detectable dose (LDD) was less than 20%, and was less than 10% for more than 50% of the antigens tested.
(§1) Results are presented as means±SEM.

[2] = Lipoprotein size and sub fraction concentrations by NMR; assay type: in vivo, human
Procedure: Mean particle size, total number of particles and their number within different subclasses of VLDL, LDL, and HDL, were determined by NMR methods. For this analysis frozen plasma samples were shipped in dry ice by overnight delivery to LipoScience Inc., who performed the analysis.
as §1

[3] = End LG, 500 mg/d, 56 days, n = 10, mean ± SEM
[4] = plasma, NMR, End LG, 500 mg/d, 56 days, n = 10, mean ± SEM

## CC1(C)O[C@H]2CC(=O)OC[C@]23[C@H]2CC[C@@](C)([C@@H](O[C@@H]4O[C@H](CO)[C@@H](O)[C@H](O)[C@H]4O)c4ccoc4)[C@@]4(O[C@@H]4C(=O)O)[C@]2(C)C(=O)C[C@@H]13 [LG, limonin glucoside]
[1]; [3]
  Adiponectin: 3.19 ± 0.70 µg/mL
  Alpha-1 Antitrypsin: 2.19 ± 0.10 mg/mL
  Alpha-2 Macroglobulin: 0.79 ± 0.06 mg/mL
  Alpha-Fetoprotein: 2.35 ± 0.19 ng/mL
  Apolipoprotein A1: 0.30 ± 0.01 mg/mL
  Apolipoprotein CIII: 111.60 ± 12.92 µg/mL
  Apolipoprotein H: 257.10 ± 19.26 µg/mL
  Apolipoprotein a: 110.78 ± 57.76 µg/mL
  Beta-2 Microglobulin: 1.46 ± 0.14 µg/mL
  Brain-Derived Neurotrophic Factor: 2.88 ± 0.71 ng/mL
  C Reactive Protein: 1.77 ± 0.26 µg/mL
  CD 40: 0.76 ± 0.06 ng/mL
  CD 40 Ligand: 0.74 ± 0.27 ng/mL
  Carcinoembryonic Antigen: 1.49 ± 0.36 ng/mL
  Creatine Kinase-MB: 0.30 ± 0.07 ng/mL
  EN-RAGE: 3.45 ± 0.99 ng/mL
  Eotaxin-1: 71.37 ± 14.78 pg/mL
  Epidermal growth factor: 251.67 ± 48.22
  Epithelial derived-neutrophil-activating protein: 1.68 ± 0.41 ng/mL
  Factor VII: 548.70 ± 64.71 ng/mL
  Ferritin: 137.76 ± 59.13 ng/mL
  Fibrinogen: 4.81 ± 0.29 mg/mL
  Fibroblast growth factor-basic: 102.81 ± 19.33 pg/mL
  Glutathione S-Transferase: 0.56 ± 0.02 ng/mL
  Granulocyte colony-stimulating factor: 5.63 ± 1.12 pg/mL
  Growth hormone: 1.71 ± 0.79 ng/mL
  Haptoglobin: 1.26 ± 0.18 mg/mL
  ICAM-1: 105.01 ± 13.81 ng/mL
  Immunoglobulin A: 2.14 ± 0.54 mg/mL
  Immunoglobulin E: 28.89 ± 6.20 ng/mL
  Immunoglobulin M: 1.85 ± 0.23 mg/mL
  Insulin: 2.94 ± 0.53 μIU/mL
  Interleukin-1 beta: 0.50 ± 0.14 pg/mL
  Interleukin-1 receptor antagonist: 105.05 ± 14.03 pg/mL
  Interleukin-3: 0.05 ± 0.01 ng/mL
  Interleukin-4: 62.87 ± 8.35 pg/mL
  Interleukin-5: 3.80 ± 0.77 pg/mL
  Interleukin-7: 51.27 ± 7.39 pg/mL
  Interleukin-8: 11.26 ± 1.25 pg/mL
  Interleukin-10: 10.92 ± 2.07 pg/mL
  Interleukin-12p 70: 59.91 ± 2.15 pg/mL
  Interleukin-13: 59.52 ± 6.77 pg/mL
  Interleukin-15: 0.45 ± 0.09 ng/mL
  Interleukin-16: 404.90 ± 32.28 pg/mL
  Interleukin-18: 237.45 ± 24.67 pg/mL
  Leptin: 15.00 ± 4.12 ng/mL
  Macrophage inflammatory protein-1α: 106.76 ± 12.39 pg/mL
  Macrophage inflammatory protein-1β: 183.58 ± 36.53 pg/mL
  Matrix metalloproteinase-2: 2.20 ± 156.40 µg/mL
  Monocyte chemotactic protein-1: 164.84 ± 16.25 pg/mL
  Monocyte derived chemokine: 426.10 ± 40.45 pg/mL
  Myeloperoxidase: 147.83 ± 22.42 ng/mL
  Myoglobin: 14.94 ± 2.39 ng/mL
  Plasminogen activator inhibitor-1: 69.86 ± 15.86 ng/mL
  Pregnancy associated plasma protein A: 0.02 ± 0.00 mIU/mL
  Prostatic Acid Phosphatase: 0.17 ± 0.02 ng/mL
  Serum amyloid P-component: 16.61 ± 0.94 µg/mL
  Serum glutamic oxaloacetic transaminase: 9.67 ± 1.64 µg/mL
  Sex hormone binding globulin: 33.29 ± 5.40 nmol/L
  Stem Cell Factor: 351.05 ± 50.76 pg/mL
  T-cell specific protein, RANTES: 16.48 ± 3.62 ng/mL
  Thrombopoietin: 1.40 ± 0.22 ng/mL
  Thyroid Stimulating Hormone: 1.72 ± 0.30 μIU/mL
  Thyroxine Binding Globulin: 46.51 ± 2.84 µg/mL
  Tissue factor: 0.45 ± 0.03 ng/mL
  Tissue inhibitor of metalloproteinases-1: 87.97 ± 8.38 ng/mL
  Tumor necrosis factor receptor-like 2: 3.83 ± 0.25 ng/mL
  Tumor necrosis factor α: 3.58 ± 0.68 pg/mL
  Vascular cell adhesion molecule-1: 508.80 ± 49.79 ng/mL
  Vascular endothelial growth factor: 883.55 ± 268.15 pg/mL
  Von Willebrand Factor: 30.03 ± 3.09 µg/mL
[1]; not significant
  tumor necrosis factor α (p=0.085), matrix metalloproteinase-9 (p=0.118), serum amyloid P (p=0.188) with supplementation: trends for decrease
[1]; second line so named (r60), End LG, 500 mg/d, 56 days, n = 10, mean ± SEM
  Matrix metalloproteinase-2: 0.07601 ± 0.02246 µg/mL
[2]; [4]
  Calculated TG total: 150.50 ± 22.84 mg/dL
  Calculated cholesterol total: 208.50 ± 5.45 mg/dL
  HDL cholesterol total: 46.10 ± 2.65 mg/dL
  IDL cholesterol: 8.93 ± 1.83 mg/dL
  IDL particles: 71.80 ± 14.77 nmols/L
  LDL total cholesterol: 137.60 ± 5.14 mg/dL
  Large HDL cholesterol: 20.19 ± 3.24 mg/dL
  Large HDL particles: 6.57 ± 0.99 μmols/L
  Large LDL cholesterol: 67.24 ± 9.75 mg/dL
  Large LDL particles: 495.80 ± 71.47 nmols/L
  Large VLDL & chylomicron TG: 33.01 ± 13.18 mg/dL
  Large VLDL & chylomicron particles: 3.50 ± 1.64 nmol/L
  Mean particle size (HDL particles): 8.86 ± 0.12 nm
  Mean particle size (LDL particles): 20.94 ± 0.26 nm
  Mean particle size (VLDL & chylomicron particles): 48.60 ± 2.25 nm
  Medium HDL cholesterol: 5.87 ± 1.87 mg/dL
  Medium HDL particles: 4.54 ± 1.43 μmols/L
  Medium VLDL & chylomicron particles: 37.70 ± 8.22 nmol/L
  Medium VLDL TG: 53.08 ± 11.93 mg/dL
  Medium small LDL cholesterol: 22.60 ± 3.80 mg/dL
  Medium small LDL particles: 208.40 ± 35.06 nmols/L
  Small HDL cholesterol: 20.03 ± 1.91 mg/dL
  Small HDL particles: 20.25 ± 1.94 μmols/L
  Small LDL cholesterol: 61.47 ± 10.32 mg/dL
  Small VLDL & chylomicron particles: 45.47 ± 5.95 nmol/L
  Small VLDL TG: 20.32 ± 2.64 mg/dL
  Total HDL particles: 31.35 ± 0.95 μmols/L
  Total LDL particle: 1582.80 ± 118.15 nmols/L
  Total VLDL & chylomicron particles: 86.69 ± 13.15 nmol/L
  Total small LDL particles: 1015.20 ± 169.46 nmols/L
  VLDL & chylomicron total TG: 106.50 ± 22.20 mg/dL
  Very small LDL cholesterol: 38.91 ± 6.55 mg/dL
  Very small LDL particles: 806.80 ± 134.82 nmols/L
[2]; vs end of placebo treatment
  effect on mean particle sizes and sub-fraction concentrations of VLDL, LDL, HDL: did not alter
